According to ChEMBL document CHEMBL1153888, “Targeted intracellular protein degradation induced by a small molecule: En route to chemical proteomics” (Bioorg Med Chem Lett, 2008):
Activity calls are given as the source filed them. The rule behind the calls is not given here.

Assays:
[1] = target: E3 ubiquitin-protein ligase Mdm2 (Homo sapiens, UniProt Q00987); assay: Binding affinity to MDM2
HeLa [2] = assay: Induction of intracellular protein degradation in human HeLa cells expressing androgen receptor assessed as decrease in total AR protein levels at 10 uM after 7 hrs by Western blot; format: functional, cell-based
HeLa [3] = assay: Inhibition of intracellular protein degradation in human HeLa cells expressing androgen receptor assessed as effect on total AR protein levels at 10 uM after 7 hrs by Western blot in presence of epoxomicin; format: functional, cell-based

Chain of E3 ubiquitin-protein ligase Mdm2 (Q00987 whole entry): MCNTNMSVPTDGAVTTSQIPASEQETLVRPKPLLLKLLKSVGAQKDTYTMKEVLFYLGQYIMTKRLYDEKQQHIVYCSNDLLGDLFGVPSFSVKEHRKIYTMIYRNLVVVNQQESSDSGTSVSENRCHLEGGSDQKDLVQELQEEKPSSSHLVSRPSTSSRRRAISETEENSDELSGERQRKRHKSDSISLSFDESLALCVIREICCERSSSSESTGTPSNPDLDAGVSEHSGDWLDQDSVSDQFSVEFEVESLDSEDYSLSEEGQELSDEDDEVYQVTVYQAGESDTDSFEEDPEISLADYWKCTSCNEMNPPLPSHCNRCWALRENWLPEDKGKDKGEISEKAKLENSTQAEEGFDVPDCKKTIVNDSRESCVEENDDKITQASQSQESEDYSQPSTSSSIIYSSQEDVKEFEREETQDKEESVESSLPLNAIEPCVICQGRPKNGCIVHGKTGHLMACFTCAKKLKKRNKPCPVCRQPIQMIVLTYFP

SMILES | IC50 [1] | Activity (HeLa [2]) | Activity (HeLa [3])
COc1ccc(C2=NC(c3ccc(Cl)cc3)C(c3ccc(Cl)cc3)N2)c(OC(C)C)c1 (stereo not drawn) | 90 nM |  | 
COc1ccc(C2=N[C@H](c3ccc(Cl)cc3)[C@H](c3ccc(Cl)cc3)N2C(=O)N2CCN(CC(=O)NCCOCCOCCOCC(=O)Nc3ccc(OC[C@](C)(O)C(=O)Nc4ccc([N+](=O)[O-])c(C(F)(F)F)c4)cc3)C(=O)C2)c(OC(C)C)c1 |  | Active | Active
